“Also recorded” adds a separate entry of the source.

One experiment relates to microorganisms (e.g., bacteria, yeasts, fungi). Description: Targeting peptide binding to target microorganisms (Table 3). Particulars: microorganism the targeting peptide binds; binding in aqueous buffers varied by peptide solubility, preferably 1x PBS.
Regarding “1T-71 (KIDTNQWPPNKEG; Peptide with targeting and/or antimicrobial activity) [Peptide 1T-71]”, the “Target(s)” value is “P. aeruginosa”.

In the case of “1T-95 (GHLLRVGGRVGGVGGVAGACAQPFGGQ; Peptide with targeting and/or antimicrobial activity) [Peptide 1T-95]”, the “Target(s)” value was “S. gordonii; also recorded: S. mitis; also recorded: S. mutans; also recorded: S. oralis; also recorded: S. sanguinis”.

As for “1T-52 (DEYPAKLPLSDKGATEPRRH; Peptide with targeting and/or antimicrobial activity) [Peptide 1T-52]”, the “Target(s)” value is recorded as “S. aureus; also recorded: C. xerosis; also recorded: P. aeruginosa”.

“1T-154 (YFSFLEIVGMARR; Peptide with targeting and/or antimicrobial activity) [Peptide 1T-154]”: the “Target(s)” value is “P. gingivalis”.

For “1T-287 (KGYPLPFQYRLNNH; Peptide with targeting and/or antimicrobial activity) [Peptide 1T-287]”, the “Target(s)” value is “P. gingivalis; also recorded: T. denticola; also recorded: S. gordonii; also recorded: S. mitis; also recorded: S. mutans; also recorded: S. oralis; also recorded: S. salivarious; also recorded: S. sanguinis”.

Turning to “1T-237 (EDPVPNHFTLRRNKKEKPSKS; Peptide with targeting and/or antimicrobial activity) [Peptide 1T-237]”, the “Target(s)” value is “S. sanguinis”.

“1T-96 (VAGACAQPFGGQ; Peptide with targeting and/or antimicrobial activity) [Peptide 1T-96]”: the “Target(s)” value is “S. gordonii; also recorded: S. mitis; also recorded: S. mutans; also recorded: S. oralis; also recorded: S. sanguinis”.

The same experiment, now with this note: microorganism(s) the targeting peptide binds; binding in aqueous buffers depending on peptide solubility, preferably 1x PBS.
“PF-371 (TFIYNEF; Peptide with targeting and/or antimicrobial activity)”: the “Target(s)” value was “S. epidermidis; also recorded: B. fragilis; also recorded: C. jejuni”.

With “PF-183 (KPGISVENRQ; Peptide with targeting and/or antimicrobial activity)”, the “Target(s)” value is “S. epidermidis and M. luteus and E. coli and C. albicans and MRSA and E. faecalis and C. jeikeium”.

For “PF-352 (RVKKIG; Peptide with targeting and/or antimicrobial activity)”, the “Target(s)” value is “C. jeikeium”.

As for “PF-304 (LVKDTSDIKNDLNNIEIVTSKNSNDIAKLKSVK; Peptide with targeting and/or antimicrobial activity)”, the “Target(s)” value is reported as “S. mutans”.

Regarding “PF-291 (DVDGAIESEL; Peptide with targeting and/or antimicrobial activity)”, the “Target(s)” value is recorded as “S. mutans; also recorded: E. coli”.

For “PF-279 (SHIGFISISACLAVLLGIARLFVWTWVKFFA; Peptide with targeting and/or antimicrobial activity)”, the “Target(s)” value is reported as “S. mutans; also recorded: S. epidermidis; also recorded: M. luteus; also recorded: E. coli; also recorded: P. aeruginosa; also recorded: A. baumannii”.

Staying with this experiment, now noted: microorganism(s) the targeting peptide binds; peptide binding conducted in aqueous buffers varied by peptide solubility, preferably 1x PBS.
As to “PF-498 (MSEEEEVSEKVYNYLRRNEFFEVRKEEFSA; Peptide with targeting and/or antimicrobial activity)”, the “Target(s)” value was “S. mutans; also recorded: E. coli”.

For the substance “PF-438 (QPYFQNQFKKITGYTPLQYRKEKR; Peptide with targeting and/or antimicrobial activity)”, the “Target(s)” value is “S. epidermidis; also recorded: E. coli; also recorded: S. pneumoniae; also recorded: C. jeikeium; also recorded: C. jejuni”.

Still in this experiment, the particulars now being: peptide binding in aqueous buffers varied by peptide solubility; preferably 1x PBS.
Take “PF-703 (MTTVDNIVGLVIAVALMAFLFAALLFPEKF; Peptide with targeting and/or antimicrobial activity)”: the “Target(s) (microorganisms bound by the targeting peptide)” value is “Mycobacteria spp”.

Take “PF-795 (ALHKSGIQVIADWVPDQIYN; Peptide with targeting and/or antimicrobial activity)”: the “Target(s) (microorganisms bound by the targeting peptide)” value was “S. mutans”.

For the origin of these results see US20110039762A1, “TARGETED ANTIMICROBIAL MOIETIES” (C3 JIAN, INC., priority 2009, published 2011).
